Source: patent publication US20180360786A1, “(R)-CARBIDOPA ALONE OR IN COMBINATION WITH A STEROID FOR TREATING PAIN, INFLAMMATION, AN INFLAMMATORY DISEASE, AN IMMUNE OR AUTOIMMUNE DISEASE AND TUMOUR GROWTH” (PROXIMAGEN GROUP LIMITED, priority 2015, published 2018)
Where two headings read alike, the source gives them in different places.

What was measured:
CFA induced paw oedema = CFA induced paw oedema in rat, paw volume (plethysmometer); type: in vivo; settings: dosed 24 hours post CFA, 3 hours post treatment
Procedure: (§1) Assessment of the anti-hyperalgesic properties of (R)-Carbidopa was determined through measurement of weight bearing following CFA induced hypersensitivity. Naive rats distribute their body weight equally between the two hind paws. However, when the injected (left) hind paw is painful, the weight is re-distributed so that less weight is put on the affected paw (decrease in weight bearing on injured paw). Weight bearing through each hind limb was measured using a rat incapacitance tester (Linton Instruments, UK). Rats were placed in the incapacitance tester with the hind paws on separate sensors and the average force exerted by both hind limbs was recorded over 4 seconds. The injection of CFA also induces an oedema that can be assessed by paw volume; this is measured using a plethysmometer. […] Data were analysed by comparing treatment groups to the vehicle control group at each time point. Weight bearing (g) readings were taken for both right and left hind paws and the difference calculated. Data is expressed as % reversal of the hypersensitivity to pain. Paw Volume (mL) readings were taken for the left hind paws. Data are expressed as % reversal of the oedema. Calculation: (post dose reading−pre dose reading)/(naïve reading−pre dose reading)×100, where naive weight bearing difference−pre dose weight bearing difference is defined as the CFA window to be reversed. […]

[1] = system: CFA induced hypersensitivity; assay: CFA induced hypersensitivity in rat, weight bearing (incapacitance tester); type: in vivo; settings: dosed 24 hours post CFA, 1 and 3 hours post treatment
Procedure: as §1, with “plethysmometer. The rat's hind paw is placed into the cylinder containing a solution and the volume of displaced liquid determines the paw volume. Naive male, Sprague Dawley rats were acclimatised with food and water available ad libitum. Habituation to the incapacitance tester was performed. Baseline weight bearing and paw volume recordings were taken prior to induction of insult. Inflammatory hypersensitivity was induced by intraplantar injection of CFA (100 μl of 1 mg/ml solution) into the left hind paw. A pre-treatment weight bearing and paw volume measurement was taken to assess hypersensitivity 23 hours post-CFA. Animals were then ranked and randomised according to CFA window in a Latin square design.” for “plethysmometer.”

human VAP-1 (SSAO) = biological target: T1, human VAP-1 (SSAO) (Homo sapiens, UniProt Q16853); assay: In vitro determination of human VAP-1 (SSAO) inhibition (HRP-coupled Amplex Red, benzylamine substrate); type: biochemical; settings: for IC50: purified recombinant human VAP-1 (SSAO), benzylamine 100 μM, room temperature, about 15 min pre-incubation
T1 construct: made in house
T1 sequence (Q16853 29-763 limits assumed): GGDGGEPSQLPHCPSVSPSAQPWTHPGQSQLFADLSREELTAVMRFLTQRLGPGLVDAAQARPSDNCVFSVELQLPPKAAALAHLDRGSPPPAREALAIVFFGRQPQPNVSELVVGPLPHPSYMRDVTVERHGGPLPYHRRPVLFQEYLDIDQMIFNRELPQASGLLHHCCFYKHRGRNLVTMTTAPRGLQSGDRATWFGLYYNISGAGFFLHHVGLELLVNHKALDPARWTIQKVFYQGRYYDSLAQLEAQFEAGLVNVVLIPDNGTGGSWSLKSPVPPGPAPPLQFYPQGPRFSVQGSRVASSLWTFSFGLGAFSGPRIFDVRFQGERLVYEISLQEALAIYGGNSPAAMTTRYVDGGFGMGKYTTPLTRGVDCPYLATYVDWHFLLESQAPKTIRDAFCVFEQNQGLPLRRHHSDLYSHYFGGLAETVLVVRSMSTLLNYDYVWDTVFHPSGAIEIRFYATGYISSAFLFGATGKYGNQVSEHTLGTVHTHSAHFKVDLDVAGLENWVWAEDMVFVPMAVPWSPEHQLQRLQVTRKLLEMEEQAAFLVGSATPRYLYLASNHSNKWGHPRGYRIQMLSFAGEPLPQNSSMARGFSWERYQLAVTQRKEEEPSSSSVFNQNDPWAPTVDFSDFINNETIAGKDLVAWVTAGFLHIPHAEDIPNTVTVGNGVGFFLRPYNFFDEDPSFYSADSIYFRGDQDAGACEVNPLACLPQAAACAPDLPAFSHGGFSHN
Procedure: This assay is performed at room temperature with purified recombinantly expressed human VAP-1 (SSAO). Enzyme was prepared essentially as described in Ohman et al. (Protein Expression and Purification 46 (2006) 321-331). The enzyme activity is assayed with benzylamine as substrate by utilizing the production of hydrogen peroxide in a horseradish peroxidise (HRP) coupled reaction. Briefly, test compounds are dissolved in dimethyl sulfoxide (DMSO) to a concentration of 10 mM. Dose-response measurements are assayed by either creating 1:10 serial dilutions in DMSO to produce a 7 point curve or by making 1:3 serial dilutions in DMSO to produce 11 point curves. The top concentrations are adjusted depending on the potency of the compounds and subsequent dilution in reaction buffer yielded a final DMSO concentration ≤2%.
In a horseradish peroxidise (HRP) coupled reaction, hydrogen peroxide oxidation of 10-acetyl-3,7-dihydroxyphenoxazine produces resorufin, which is a highly fluorescent compound (Zhout and Panchuk-Voloshina. Analytical Biochemistry 253 (1997) 169-174; AmplexR Red Hydrogen Peroxide/peroxidise Assay kit, Invitrogen A22188). Enzyme and compounds in 50 mM sodium phosphate, pH 7.4 are set to pre-incubate in flat-bottomed microtiter plates for approximately 15 minutes before initiating the reaction by addition of a mixture of HRP, benzylamine and Amplex reagent. Benzylamine concentration is fixed at a concentration corresponding to the Michaelis constant, determined using standard procedures. Fluorescence intensity is then measured at several time points during 1-2 hours, exciting at 544 nm and reading the emission at 590 nm. […] The inhibition is measured as % decrease of the signal compared to a control without inhibitor (only diluted DMSO). […] Data is fitted to a four parameter logistic model and IC50 values are calculated, for example by using the GraphPad Prism 4 or XLfit 4 programs.

[2] = biological target: T2, human aromatic L-amino acid decarboxylase (DOPA decarboxylase) (Homo sapiens, UniProt P20711); assay: In vitro determination of human aromatic L-amino acid decarboxylase (DOPA decarboxylase) inhibition; type: biochemical; settings: recombinant human DOPA decarboxylase, 500 μM L-Dopa, 60 min pre-incubation
T2 construct: purchased R&D systems 3564-DC
T2 sequence (P20711 1-480): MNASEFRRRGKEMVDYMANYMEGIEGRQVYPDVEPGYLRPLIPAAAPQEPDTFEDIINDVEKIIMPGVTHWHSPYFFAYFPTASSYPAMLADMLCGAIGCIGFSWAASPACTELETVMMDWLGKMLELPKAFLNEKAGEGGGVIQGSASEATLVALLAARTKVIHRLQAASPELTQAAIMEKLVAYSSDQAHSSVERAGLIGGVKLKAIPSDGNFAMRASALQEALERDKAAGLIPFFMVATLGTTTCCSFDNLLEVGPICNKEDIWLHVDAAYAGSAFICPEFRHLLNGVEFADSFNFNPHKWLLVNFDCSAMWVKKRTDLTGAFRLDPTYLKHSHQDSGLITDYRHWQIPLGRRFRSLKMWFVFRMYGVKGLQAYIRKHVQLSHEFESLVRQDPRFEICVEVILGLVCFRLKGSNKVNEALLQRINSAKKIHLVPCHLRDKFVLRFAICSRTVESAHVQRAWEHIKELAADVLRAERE
Procedure: The enzyme reaction of human DOPA decarboxylase was carried out according to the manufacture instructions (R&D systems cat#3564-DC). The assay measured the ability of recombinant human DOPA decarboxylase to convert L-Dopa to dopamine. The dopamine product was measured by its absorbance at 340 nm after derivatization with trinitrobenzene sulphuric acid. Briefly, the reaction was carried out in 50 mM HEPES buffer containing 100 mM NaCl pH 7.2 for 30 min and stopped by inactivation of the enzyme at 95° C. for 2 min. The inhibitory assay was performed by measuring the decarboxylase activity of DOPA decarboxylase with 0.8 μg enzyme, 500 μM L-Dopa, and 100 μM pyridoxal phosphate in the presence or absence of a fixed amount of each compound. Test compounds were pre-incubated for 60 min with DOPA decarboxylase before initiating the assay with the addition of the substrate L-DOPA. Dose response curves were generated to determine the concentration required to inhibit 50% of decarboxylase activity (IC50). Compounds were evaluated in duplicate at 7 concentrations. IC50 values were derived by nonlinear regression analysis.

## COc1ccc2c(c1)c(CC(=O)O)c(C)n2C(=O)c1ccc(Cl)cc1 [Indomethacin, indomethacin]
CFA induced paw oedema; indomethacin 10 mg/kg
  reduction of paw oedema: significant reduction on paw oedema
[1]; indomethacin 10 mg/kg
  reversal of the hypersensitivity measured using weight bearing: marked reversal of the hypersensitivity

## C[C@]12C=CC(=O)C=C1CC[C@@H]1[C@@H]2[C@@H](O)C[C@@]2(C)[C@H]1CC[C@]2(O)C(=O)CO [Prednisolone, prednisolone]
[1]; 0.3-10 mg/kg alone
  inhibition of the hypersensitivity response (weight bearing), Part B, FIG. 3: dose-dependently inhibited the hypersensitivity response

## C[C@](Cc1ccc(O)c(O)c1)(NN)C(=O)O (single isomer, unassigned) [(S)-Carbidopa]
Human VAP-1 (SSAO)
  IC50: 142 nM
[2]; read-out: IC50 for inhibition of human aromatic L-amino acid decarboxylase
  IC50: 190 nM

## C[C@](Cc1ccc(O)c(O)c1)(NN)C(=O)O [(R)-Carbidopa, (R)-carbidopa]
Human VAP-1 (SSAO); comparison of VAP-1 and DOPA decarboxylase inhibition
  selectivity for SSAO/VAP-1 over the enzyme DOPA decarboxylase: surprising selectivity
Human VAP-1 (SSAO)
  IC50: 148 nM
CFA induced paw oedema; 3-30 mg/kg alone
  reduction of paw volume (oedema), Part A, FIG. 2: significant reduction of paw volume
[2]; did not inhibit up to the maximum concentration tested, read-out: inhibition of human aromatic L-amino acid decarboxylase (IC50)
  IC50: > 3000 nM
[1]; 3-30 mg/kg alone
  inhibition of the hypersensitivity response (weight bearing), Part A, FIG. 1: dose-dependently inhibited the hypersensitivity response
